Here are results for three compounds from patent US5306712A, “Fungicidal silicon-containing compounds and their agrochemical and medicinal uses” (Sanyo Company, Limited, priority 1991, dated 1994).

The subject of assay [1] is Tyromyces palustris (Fungus E). Put plainly: Wood-preservative Activity (Antidecay). The settings on record: paper disc, 30 μl of 300 ppm acetone solution, 25° C., 5 days.
Method: (§4) A fungal disc of about 4 mm diameter was inoculated on an agar medium (2% by weight malt extract, 1% glucose, 0.3% peptone and 2% agar) in a petri dish of diameter 9 cm, by placing the disc on the center of the medium. Paper disc specimens were prepared by impregnating 30 μl of an acetone solution containing 300 ppm of the test compound into the disc (diameter 8 mm, thickness 0.7 mm) and then subjecting it to dry sterilization. The disc specimens were placed in a circle at about 1 cm distance from the fringe of the grown fungus, three days after the inoculation. The specimens were then maintained at 25° C. for 5 days, after which the antifungal activity was determined by visual observation of infection of the specimens by the fungus.
(§5) The procedure described in Experiment 7 was repeated, except that the fungi tested were Coriolus versicolor (Fungus D) and Tyromyces palustris (Fungus E), which are prescribed in JIS A-9201.
In assay [2] the test system is Gliocladium virens (Fungus B). Put plainly: Antifungal Activity (paper disc on agar). The settings on record: 30 μl of 300 ppm acetone solution, 25° C., 5 days.
Method: (§6) A fungal disc of about 4 mm diameter was inoculated on an agar medium (2% by weight malt extract, 1% glucose, 0.3% peptone and 2% agar) in a petri dish of diameter 9 cm, by placing the disc on the center of the medium. Paper disc specimens were prepared by impregnating 30 μl of an acetone solution containing 300 ppm of the test compound into the disc (diameter 8 mm, thickness 0.7 mm) and then subjecting it to dry sterilization. The disc specimens were placed in a circle at about 1 cm distance from the fringe of the grown fungus, three days after the inoculation. The specimens were then maintained at 25° C. for 5 days, after which the antifungal activity was determined by visual observation of infection of the specimens by the fungus. The fungi tested were:
Gliocladium virens (Fungus B), and
The subject of assay [3] is Fusarium moliniforme (Fungus C). Nature of the assay: Antifungal Activity (paper disc on agar). The conditions noted are these: 30 μl of 300 ppm acetone solution, 25° C., 5 days.
Method: as §6
The antifungal activity is indicated by the following ratings:
The test system of assay [4] is Cryptococcus neoformans 58063. Nature of the assay: Antifungal Test (MIC, Sabouraud's agar). The assay is classed as cell-based. The conditions noted are these: Cryptococcus neoformans, 58063, 48 h; C. neofor; 27° C., 2 days. The protocol: (§1) (i) Preparation of the test solution: The sample to be tested was examined to determine a suitable solvent from those listed below and the method of dissolution, and then the sample was weighed (about 10 mg), dissolved in the selected solvent and diluted with sterilized distilled water to a concentration of 500 μg/ml. Samples of the resulting solution were then subjected to sequential dilution to half the previous concentration to prepare I2 samples in which the concentration of active compound is progressively halved.
(§2) (ii) Test procedure for antifungal activity: Using Nunklon (Registered trademark) 24.hole plates (manufactured by Nunk K. K.), 0.1 ml each of the diluted solutions described above was poured into a hole, 0.9 ml of Sabouraud's agar medium was added to each hole, giving a total of 1 ml in each hole, and mixed to prepare the plate medium.
3 Cryptococcus neoformans 58063 (C. neofor)
(§3) These test strains were inoculated by means of a slant on Sabouraud's agar medium, cultured at 27° C. for 2 days for the yeast strains or for 7 to 14 days for the mold strains, and, kept intact, preserved at 5° C. (subcultured every 1 month). On the day of the test, in the case of the yeast medium, physiological saline to which had previously been added Tween 80 in an amount of 0.1% (w/v) was added to each medium to prepare 10^6 cells/ml suspensions; and, in the case of the mold medium, 4 ml each of the solution above was added to the surface of the agar slant, the surface was rubbed slightly with a stirrer or a platinum loop to suspend the spores, and then, by filtration through a funnel on which 2 sterilized gauzes were placed one upon another, 10^6 cells/ml suspensions were prepared. Using an Eppendorf pipette, 0.1 ml each of these suspension preparations was inoculated and cultivated. The culture was conducted at 27° C. for 2 days for the three strains of yeast, for 5 days for molds 4 , 5 and 6, and for 7 days for molds 7 and 8 to determine minimal inhibitory concentrations of the test samples.

Another assay deals with Trichophyton rubrum Sc. Nature of the assay: Antifungal Test (MIC, Sabouraud's agar). The assay is classed as cell-based. The settings on record: 168 h.
Another assay concerns Microsporum gypseum. Put plainly: Antifungal Test (MIC, Sabouraud's agar). The conditions noted are these: Nannizzia gypsea, 120 h. The class given is cell-based. The procedure: as §1, §2
6 Microsporum gypseum (M. gypseu)
as §3

The next assay relates to Candida albicans 427. Nature of the assay: Antifungal Test (MIC, Sabouraud's agar). The assay is classed as cell-based.
In assay [5] the test system is Coriolus versicolor (Fungus D). Nature of the assay: Wood-preservative Activity (Antidecay). The settings on record: paper disc, 30 μl of 300 ppm acetone solution, 25° C., 5 days.
Method: as §4, §5
For a further assay, the system named is Mucor mucedo. Put plainly: Antifungal Test (MIC, Sabouraud's agar). The assay is classed as cell-based. The conditions noted are these: 120 h.
A further assay concerns Candida Albicans Sc. Put plainly: Antifungal Test (MIC, Sabouraud's agar). The settings on record: 48 h, C. albica, 27° C., 2 days. The assay is classed as cell-based. The procedure: as §1, §2
1 Candida Albicans Sc. (C. albica)
as §3

Assay [6] deals with Aspergillus niger (Fungus A). Put plainly: Antifungal Activity (paper disc on agar). The conditions noted are these: 30 μl of 300 ppm acetone solution, 25° C., 5 days.
Method: as §6
Aspergillus niger (Fungus A),
In assay [7] the test system is Trichophyton mentagrophytes Sc. Put plainly: Antifungal Test (MIC, Sabouraud's agar). The class given is cell-based. The settings on record: 168 h, T. mentag, 27° C., 7 days. The protocol:
as §1, §2
7 Trichophyton mentagrophytes Sc. (T. mentag)
as §3

The next assay concerns Aspergillus fumigatus. Put plainly: Antifungal Test (MIC, Sabouraud's agar). The settings on record: 120 h, A. fumiga, 27° C., 5 days. The assay is classed as cell-based. The protocol: as §1, §2
5 Aspergillus fumigatus (A. fumiga)
as §3

≈ marks a conversion by molar mass, not a printed value. Read-outs that look alike come from different tables or passages of the source. Some results are limits rather than exact numbers.

As a reminder, the MIC is the smallest concentration in the dilution series that meets the test's criterion for growth inhibition. Take `C[Si](C)(C)CC(O)(Cn1cncn1)c1ccc(F)cc1F` (centres unmarked) [Compound 1-12, 2-(2,4-Difluorophenyl)-1-(1H-1,2,4-triazole-1-yl)-3-trimethylsilyl-2-propanol]: the “wood-preservative (antidecay) activity, Fungus E” value in assay [1] is “+”. Also, the “antifungal activity, Fungus B” value in [2] was “+”. Also, in assay [3], the “antifungal activity, Fungus C” value is “+”. Besides, the MIC in assay [4] was 6.2 µg/mL (≈ 19.9 µM); with Trichophyton rubrum Sc. (T. rubrum, 27° C., 7 days, read-out: MIC), 0.8 µg/mL (≈ 2.57 µM); against Microsporum gypseum it was 1.5 µg/mL (≈ 4.82 µM); in the assay on Candida albicans 427 (Candida albicans, 48 h, C. alb 427, 27° C., 2 days, read-out: MIC) it was above 50 µg/mL; with Mucor mucedo (M. mucedo, 27° C., 5 days, read-out: MIC), 12.5 µg/mL (≈ 40.1 µM); against Candida Albicans Sc., above 50 µg/mL. The MIC came out at 0.8 µg/mL (≈ 2.57 µM) in assay [7] and 12.5 µg/mL (≈ 40.1 µM) in the assay on Aspergillus fumigatus. Moreover, the “wood-preservative (antidecay) activity, Fungus D” value in assay [5] is “+”. In addition, the “antifungal activity, Fungus A” value in [6] is listed as “-”.
For `C[Si](C)(C)CC(O)(Cn1cncn1)c1ccc(Cl)cc1` (centres unmarked) [Compound 1-2, 2-(4-Chlorophenyl)-1-(1H-1,2,4-triazol-1-yl)-3-trimethylsilyl-2-propanol], the “wood-preservative (antidecay) activity, Fungus E” value in [1] is reported as “+”. The “antifungal activity, Fungus B” value in assay [2] is reported as “+”. Further, the “antifungal activity, Fungus C” value in [3] is “+”. In addition, the MIC in assay [4] was 12.5 µg/mL (≈ 40.3 µM); in the assay on Trichophyton rubrum Sc., 3.1 µg/mL (≈ 10 µM); in the assay on Microsporum gypseum, above 50 µg/mL; in the assay with Candida albicans 427 (Candida albicans, 427, 48 h) it was above 50 µg/mL; in the assay on Mucor mucedo, above 50 µg/mL; in the assay on Candida Albicans Sc. it was above 50 µg/mL. In addition, the values for the MIC (in [7]; in the assay with Aspergillus fumigatus) were 3.1 µg/mL (≈ 10 µM) and above 50 µg/mL, respectively. In [5], the “wood-preservative (antidecay) activity, Fungus D” value is listed as “+”. The “antifungal activity, Fungus A” value in [6] was “+”.
For the compound `C[Si](C)(C)CC(O)(Cn1cncn1)c1ccc(F)cc1` (centres unmarked) [Compound 1-3, 2-(4-Fluorophenyl)-1-(1H-1,2,4-triazol-1-yl)-3-trimethylsilyl-2-propanol], the MIC in [4] was above 50 µg/mL; against Trichophyton rubrum Sc., 25 µg/mL (≈ 85.2 µM); against Microsporum gypseum it was above 50 µg/mL; in the assay on Candida albicans 427 (Candida albicans, 427, 48 h), above 50 µg/mL; in the assay on Mucor mucedo it was above 50 µg/mL; against Candida Albicans Sc., above 50 µg/mL. The values for the MIC (in assay [7]; against Aspergillus fumigatus) were 25 µg/mL (≈ 85.2 µM) and above 50 µg/mL, respectively. Further, the “antifungal activity, Fungus A” value in [6] is listed as “+”.
